Source: ChEMBL document CHEMBL1909046, “DrugMatrix in vitro pharmacology data”

Assays:
[1] = target: T1, Vasoactive intestinal polypeptide receptor 1 (Homo sapiens, UniProt P32241); type: cell membranes, Membrane; details: ht-29; also: in other assays of this panel Not Active means under 50% inhibition at 10 µM
T1 sequence (P32241 whole entry): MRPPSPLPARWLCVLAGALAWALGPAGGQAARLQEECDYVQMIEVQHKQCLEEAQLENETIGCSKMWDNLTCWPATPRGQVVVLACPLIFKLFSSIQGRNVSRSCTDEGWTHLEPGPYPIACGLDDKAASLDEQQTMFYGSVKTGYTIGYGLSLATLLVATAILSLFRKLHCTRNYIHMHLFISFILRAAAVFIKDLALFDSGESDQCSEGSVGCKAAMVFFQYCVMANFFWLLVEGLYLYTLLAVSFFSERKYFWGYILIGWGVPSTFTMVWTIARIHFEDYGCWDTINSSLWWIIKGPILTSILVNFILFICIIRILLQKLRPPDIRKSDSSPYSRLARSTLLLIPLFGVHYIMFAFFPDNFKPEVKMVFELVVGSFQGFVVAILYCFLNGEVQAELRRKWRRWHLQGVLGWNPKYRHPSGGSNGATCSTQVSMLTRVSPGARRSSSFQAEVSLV

[2] = target: C-C chemokine receptor type 5 (Homo sapiens, UniProt P51681); type: cell membranes, Membrane; details: hek293; also: in other assays of this panel Not Active means under 50% inhibition at 10 µM
Sequence of C-C chemokine receptor type 5 (P51681 whole entry): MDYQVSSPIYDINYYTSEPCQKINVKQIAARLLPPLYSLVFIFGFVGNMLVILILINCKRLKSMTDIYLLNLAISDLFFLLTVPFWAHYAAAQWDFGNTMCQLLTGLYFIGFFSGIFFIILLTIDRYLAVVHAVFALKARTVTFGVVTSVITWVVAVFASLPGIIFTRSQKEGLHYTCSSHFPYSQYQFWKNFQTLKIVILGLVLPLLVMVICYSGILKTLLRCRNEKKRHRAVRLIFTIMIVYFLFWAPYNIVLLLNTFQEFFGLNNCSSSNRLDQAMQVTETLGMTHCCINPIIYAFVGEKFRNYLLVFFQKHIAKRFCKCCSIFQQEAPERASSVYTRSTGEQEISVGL

[3] = target: Sodium-dependent dopamine transporter (Homo sapiens, UniProt Q01959); assay: DRUGMATRIX: Dopamine Transporter radioligand binding (ligand: [125I] RTI-55); type: cell membranes, CHO-K1, Membrane; details: cho-k1; Not Active = under 50% inhibition at 10 µM
Sequence of Sodium-dependent dopamine transporter (Q01959 whole entry): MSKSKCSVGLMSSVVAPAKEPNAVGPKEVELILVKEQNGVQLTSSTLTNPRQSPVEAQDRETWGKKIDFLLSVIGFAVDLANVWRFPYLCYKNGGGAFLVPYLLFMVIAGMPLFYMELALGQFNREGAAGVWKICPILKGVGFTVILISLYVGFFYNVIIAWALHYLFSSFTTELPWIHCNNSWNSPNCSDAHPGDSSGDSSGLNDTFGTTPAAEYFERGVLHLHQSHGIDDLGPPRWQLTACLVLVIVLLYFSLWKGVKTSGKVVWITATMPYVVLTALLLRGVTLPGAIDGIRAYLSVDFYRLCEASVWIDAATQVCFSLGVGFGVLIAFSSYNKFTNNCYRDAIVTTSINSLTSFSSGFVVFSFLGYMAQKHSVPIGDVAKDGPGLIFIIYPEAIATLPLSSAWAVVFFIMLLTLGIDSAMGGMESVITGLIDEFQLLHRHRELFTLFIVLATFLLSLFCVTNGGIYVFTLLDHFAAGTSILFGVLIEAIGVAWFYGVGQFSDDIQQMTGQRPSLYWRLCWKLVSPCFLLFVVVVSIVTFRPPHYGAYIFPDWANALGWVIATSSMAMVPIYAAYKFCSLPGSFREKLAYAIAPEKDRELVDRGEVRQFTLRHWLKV

[4] = target: Histamine H2 receptor (Homo sapiens, UniProt P25021); type: cell membranes, CHO-K1, Membrane; details: cho-k1; also: in other assays of this panel Not Active means under 50% inhibition at 10 µM
Sequence of Histamine H2 receptor (P25021 whole entry): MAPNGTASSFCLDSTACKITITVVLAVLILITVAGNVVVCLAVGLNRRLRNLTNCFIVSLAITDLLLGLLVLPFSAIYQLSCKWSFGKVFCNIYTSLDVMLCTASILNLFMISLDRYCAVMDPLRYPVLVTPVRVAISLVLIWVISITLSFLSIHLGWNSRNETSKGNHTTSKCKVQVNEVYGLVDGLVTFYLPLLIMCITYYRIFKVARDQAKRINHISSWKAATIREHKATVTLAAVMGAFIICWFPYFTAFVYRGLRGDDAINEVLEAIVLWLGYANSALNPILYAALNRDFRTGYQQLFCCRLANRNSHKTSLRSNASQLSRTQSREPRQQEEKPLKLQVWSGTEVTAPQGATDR

[5] = target: T2, Progesterone receptor (Bos taurus, UniProt Q690N0); assay: DRUGMATRIX: Progesterone radioligand binding (ligand: [3H] R-5020); type: tissue-based, Uterus; details: Not Active = under 50% inhibition at 10 µM
T2 sequence (Q690N0 whole entry): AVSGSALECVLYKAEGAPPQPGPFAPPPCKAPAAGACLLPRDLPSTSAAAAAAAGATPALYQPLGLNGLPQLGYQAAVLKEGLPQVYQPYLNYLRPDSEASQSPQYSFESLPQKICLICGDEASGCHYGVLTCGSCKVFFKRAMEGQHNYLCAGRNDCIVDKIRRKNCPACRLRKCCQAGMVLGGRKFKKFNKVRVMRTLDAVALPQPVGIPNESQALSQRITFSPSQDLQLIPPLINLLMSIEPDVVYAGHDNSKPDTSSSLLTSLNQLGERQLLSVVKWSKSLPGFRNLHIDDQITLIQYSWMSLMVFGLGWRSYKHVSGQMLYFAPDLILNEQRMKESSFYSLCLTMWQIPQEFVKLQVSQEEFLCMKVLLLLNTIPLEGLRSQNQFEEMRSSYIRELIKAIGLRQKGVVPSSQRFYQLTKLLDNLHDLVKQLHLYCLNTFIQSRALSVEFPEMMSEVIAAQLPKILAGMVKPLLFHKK

[6] = target: T3, Interstitial collagenase (Homo sapiens, UniProt P03956); assay: biochemical; type: tissue-based, Rheumatoid synovial fibroblasts;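 also: MMP-1 enzyme inhibition assay using a peptide substrate; in other assays of this panel Not Active means under 50% inhibition at 10 µM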
T3 sequence (P03956 whole entry): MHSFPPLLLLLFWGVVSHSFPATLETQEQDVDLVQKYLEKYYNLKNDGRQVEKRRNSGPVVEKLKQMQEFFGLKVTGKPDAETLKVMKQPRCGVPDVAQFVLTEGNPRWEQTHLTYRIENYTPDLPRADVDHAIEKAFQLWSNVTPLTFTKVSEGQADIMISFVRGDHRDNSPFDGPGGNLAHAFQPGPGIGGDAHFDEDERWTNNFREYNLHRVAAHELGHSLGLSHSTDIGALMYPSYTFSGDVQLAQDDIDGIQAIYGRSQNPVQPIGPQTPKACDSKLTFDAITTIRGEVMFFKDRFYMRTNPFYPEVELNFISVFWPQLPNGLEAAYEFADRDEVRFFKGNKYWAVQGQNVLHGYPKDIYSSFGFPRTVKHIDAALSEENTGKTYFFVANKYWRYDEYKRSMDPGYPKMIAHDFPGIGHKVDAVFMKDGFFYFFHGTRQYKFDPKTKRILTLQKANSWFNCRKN

[7] = target: Epidermal growth factor receptor (Homo sapiens, UniProt P00533); assay: DRUGMATRIX: Protein Tyrosine Kinase, EGF Receptor enzyme inhibition (substrate: Poly(Glu:Tyr)); type: cell-based, Insect cells; details: insect cells; Not Active = under 50% inhibition at 10 µM

ZIRCONIUM(IV) CHLORIDE
Not Active: IC50 [1] | Ki [1] | IC50 [2] | Ki [2] | IC50 [3] | Ki [3] | IC50 [4] | Ki [4] | IC50 [5] | Ki [5] | IC50 [6] | Ki [6] | IC50 [7] | Ki [7]
